Series [1] concerns lorazepam-induced ataxia in NMRI mice. The series can be described thus: Antagonism of benzodiazepine (lorazepam) action in motor incoordination, rotating rod. Format: in vivo. On the procedure:
Antagonism of benzodiazepine action in motor incoordination.
NMRI mice (20-25 g) were placed on a horizontal wooden rod (diameter 4.3 cm), rotating at a rate of 6 min^-1, 8 cm above the bench. […] The ability of the compounds of this invention to antagonize the effect of benzodiazepine in motor coordination has been determined by determining the ED50 -value. […] The test was performed as follows:
At least 3 groups of mice (8 mice in each group) were injected intraperitoneally with 2 mg/kg lorazepam. 15 minutes later each group of mice were injected with different doses of the test compounds and after further 15 minutes the test for ataxia was performed. Based on the data obtained the ED50 -value was calculated.

The subject of series [2] is benzodiazepine receptors. Kind of series: In vivo displacement of 3H-flunitrazepam binding to benzodiazepine receptors in living brain. As to conditions: mice, usually subcutaneously, 3H-flunitrazepam i.v. 15 minutes later. The source says:
The pharmaceutical properties of the compounds of the invention have been investigated by determining their capability for displacing radioactively labelled flunitrazepam from such benzodiazepine receptors, and their ability to antagonize pentazole induced convulsions.
The displacement activity of the compounds of the invention has been determined by determining the IC50 value and ED50 value.
The ED50 value represents the dose (mg/kg) of a test substance which causes the specific binding of flunitrazepam to benzodiazepine receptors in a living brain to be reduced to 50% of the control value. Such an in vivo test is carried out as follows:
Groups of mice are injected with the test substance at different doses and usually subcutaneously. 15 minutes later ^3 H-flunitrazepam is giving intravenously to the mice and after further 20 minutes the mice are killed, […]. The ED50 value is determined from dose-response curves.
(Loss of bound radioactivity is the signal in a displacement assay; it reports binding, not function.)

The subject of series [3] is pentazole-induced convulsions. The series can be described thus: Antagonism of pentazole-induced convulsions. Format: in vivo. As to conditions: ip; read-out: Antagonism of pentazole-induced convulsions ED50 i.p. The source says: The antagonism of pentazole induced convulsions was investigated.
The test has been performed according to known test models in pharmacology,e.g., as described in R. A. Turner, Screening Methods in Pharmacology, Academic Press, N.Y. and London 1965, esp. p. 164 ff. or Woodbury, P. M., Perry, I. K. and Schmidt, R. P. Antiepileptic Drugs, Raven Press, N.Y. 1972.

Series [4] concerns the target benzodiazepine receptors. Kind of series: Displacement of 3H-flunitrazepam specific binding in vitro, rat forebrain membrane suspension. As to conditions: 3H-flunitrazepam 1.0 nM, 0° C., pH 7.1.
For series [5], the system named is pentazole-induced seizures in diazepam-treated NMRI mice. The series can be described thus: Antagonism of benzodiazepine (diazepam) action on pentazole-induced seizures. The class given is in vivo. The settings on record: i.p., against 5 mg/kg diazepam i.p.; pentazole 150 mg/kg s.c.; clonic seizures in 50% of animals.
Experimental: Antagonism of Benzodiazepine action on pentazol-induced seizures in NMRI mice (20-25 g).
15 minutes later each group of mice were injected intraperitoneally with different doses of the test compounds and after further 15 minutes the mice received 150 mg/kg pentazol, administered subcutaneously. Clonic seizures within the next 30 minutes were noted. Based on the data obtained the ED50 value was calculated.
Series [6] in a line: Inhibition of motor coordination (ataxia). The class given is in vivo. As to conditions: mouse, sc, mice, 30 minutes after subcutaneous administration, read-out: Inhibition of/Ataxia (motor-incoordination). On the procedure:
The inhibition of motor coordination in mice was also studied 30 minutes after subcutaneous administration in accordance with a method described in the litterature (Buus Lassen et al., Acta Pharmacol. et Toxicol., 1971, 39, 1-16).

Where only a bound is given, the exact number is not on record here.

Results on 5 molecules are retold here after US4748179A, “β-carbolin-3-carboxylic acid derivatives and their use as benzodiazepine antagonists” (Schering Aktiengesellschaft, priority 1983, dated 1988).

In the case of `CCOC(=O)c1ncc2[nH]c3cccc(OC(C)C)c3c2c1C` [(CH3)2 CH, CH3, 5-isopropoxy-4-methyl-β-carboline-3-carboxylic acid ethylester], the “ED50, antagonism of benzodiazepine action in motor incoordination” value in series [1] (against 2 mg/kg lorazepam i.p., ataxia in 50% of animals, compound 15 minutes after lorazepam) was 1.0 mg/kg. In addition, the “3H-flunitrazepam binding in vivo ED50” value in the series with benzodiazepine receptors [2] amounted to 0.3 mg/kg. Besides, the ED50 in series [3] was above 100 mg/kg. In addition, at benzodiazepine receptors [4], the “3H-flunitrazepam binding in vitro IC50” value is 0.6 ng/mL. The “ED50, antagonism of benzodiazepine action on pentazole-induced seizures” value in series [5] was 0.7 mg/kg. Moreover, the ED50 at 0.5 h in series [6] was above 100 mg/kg.

Take `CCOC(=O)c1cc2c(cn1)[nH]c1cccc(OC(C)C)c12` [(CH3)2 CH, H, 5-Isopropoxy-β-carboline-3-carboxylic acid ethylester]: in the series with benzodiazepine receptors [2], the “3H-flunitrazepam binding in vivo ED50” value is recorded as 6.4 mg/kg. In addition, in series [3], the ED50 was above 100 mg/kg. Also, the “3H-flunitrazepam binding in vitro IC50” value on benzodiazepine receptors [4] amounted to 0.4 ng/mL. The ED50 at 0.5 h in series [6] was above 100 mg/kg.

Regarding `CCOC(=O)c1ncc2[nH]c3cccc(OC)c3c2c1CC` [CH3, CH3 CH2, 4-Ethyl-5-methoxy-β-carboline-3-carboxylic acid ethylester], in the series on benzodiazepine receptors [2], the “3H-flunitrazepam binding in vivo ED50” value stood at 3.0 mg/kg. Also, in series [3], the ED50 was above 100 mg/kg. The “3H-flunitrazepam binding in vitro IC50” value at benzodiazepine receptors [4] was 1.4 ng/mL. For the same molecule, the ED50 at 0.5 h in series [6] is above 100 mg/kg.

Turning to `CN1C(=O)CN=C(c2ccccc2)c2cc(Cl)ccc21` [Diazepam, reference compound], in the series with benzodiazepine receptors [2], the “3H-flunitrazepam binding in vivo ED50” value came out at 1.5 mg/kg. In addition, in series [3], the ED50 was determined as 3 mg/kg. Further, the “3H-flunitrazepam binding in vitro IC50” value at benzodiazepine receptors [4] stood at 3 ng/mL. The ED50 at 0.5 h in series [6] was 3 mg/kg.

For the molecule `O=C1Nc2ccc(Cl)cc2C(c2ccccc2Cl)=NC1O` (centres unmarked) [Lorazepam, reference compound], in series [1] (2 mg/kg i.p. 30 min before test), the “induction of ataxia (more than three falls from the rod within 2 min)” value is given as “induced ataxia in all animals”. Besides, the “3H-flunitrazepam binding in vivo ED50” value in the series with benzodiazepine receptors [2] is given as 0.2 mg/kg. Further, the ED50 in series [3] is 0.1 mg/kg. The “3H-flunitrazepam binding in vitro IC50” value at benzodiazepine receptors [4] worked out at 1 ng/mL. For the same molecule, in series [6], the ED50 at 0.5 h came to 0.3 mg/kg.
